Patent US11730746B2, “17beta-heterocyclyl-digitalis like compounds for the treatment of heart failure” (priority 2018, dated 2023)

Assays:
Sigma σ2 = target: T1, Sigma σ2 (Homo sapiens, UniProt Q5BJF2); test: Receptor binding 299007
T1 construct: Eurofins (contract assay) 299007
Description: (§1) Radioligand binding to a panel of receptors was carried out by Eurofins on crude membrane preparations according to published procedures and by using appropriate reference standard (Eurofins, CVie 101 compound code PT #1207859, study #AB76416, quote #68407-1, for Cvie Therapeutics Limited, Taiwan (R.OC.) on Mar. 5, 2017). CVie 101 was tested at the concentration of 10 μM. No significant interaction was documented, except for Sodium Channel, site 2 from rat (cat #279510), where a significant response (≥50%) was noted (Table 7).

Imidazoline I2, Central = test: Receptor binding 241000; parameters: species or system rat; details: 10 μM
Description: as §1

Adrenergic β1 = target: T2, Adrenergic β1 (Homo sapiens, UniProt P08588); test: Receptor binding 204010
T2 construct: Eurofins 204010; host or cells: crude membrane preparation
Description: as §1

[1] = tested on: Serotonin (5-Hydroxytryptamine) 5-HT1, non selective; test: Receptor binding 271010; parameters: species or system rat; details: 10 μM
Description: as §1

Dopamine D1 = target: T3, Dopamine D1 (Homo sapiens, UniProt P21728); test: Receptor binding 219500
T3 construct: Eurofins 219500; host or cells: crude membrane preparation
T3 sequence (P21728 whole entry): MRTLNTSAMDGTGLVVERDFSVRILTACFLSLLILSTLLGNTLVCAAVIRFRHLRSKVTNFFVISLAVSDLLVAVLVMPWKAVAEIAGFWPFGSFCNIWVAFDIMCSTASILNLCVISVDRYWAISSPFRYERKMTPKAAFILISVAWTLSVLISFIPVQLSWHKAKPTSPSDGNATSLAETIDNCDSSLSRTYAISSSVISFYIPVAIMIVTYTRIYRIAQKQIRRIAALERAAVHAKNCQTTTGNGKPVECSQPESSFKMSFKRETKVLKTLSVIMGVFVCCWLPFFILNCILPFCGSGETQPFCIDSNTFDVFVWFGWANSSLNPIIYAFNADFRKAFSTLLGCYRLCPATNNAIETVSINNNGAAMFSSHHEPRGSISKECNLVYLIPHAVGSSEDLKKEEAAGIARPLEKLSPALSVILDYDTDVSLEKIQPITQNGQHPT
Description: as §1

Estrogen ERβ = target: T4, Estrogen ERβ (Homo sapiens, UniProt Q92731); test: Receptor binding 226050
T4 construct: Eurofins (contract assay) 226050
T4 sequence (Q92731 whole entry): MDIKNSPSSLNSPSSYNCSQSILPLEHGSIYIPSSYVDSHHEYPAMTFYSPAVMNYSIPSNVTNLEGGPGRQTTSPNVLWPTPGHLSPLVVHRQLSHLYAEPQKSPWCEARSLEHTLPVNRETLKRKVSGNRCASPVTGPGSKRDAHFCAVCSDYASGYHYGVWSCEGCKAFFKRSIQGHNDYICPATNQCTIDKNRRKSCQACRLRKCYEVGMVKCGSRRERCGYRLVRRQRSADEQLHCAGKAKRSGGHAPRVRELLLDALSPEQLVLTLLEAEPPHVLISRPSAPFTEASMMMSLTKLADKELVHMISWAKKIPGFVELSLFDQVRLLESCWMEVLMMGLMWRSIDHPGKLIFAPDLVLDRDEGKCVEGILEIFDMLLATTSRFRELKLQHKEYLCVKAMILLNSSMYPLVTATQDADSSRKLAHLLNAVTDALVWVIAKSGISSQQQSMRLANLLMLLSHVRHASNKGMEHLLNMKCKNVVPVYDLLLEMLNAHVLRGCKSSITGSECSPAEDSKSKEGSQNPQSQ
Description: as §1

Peptidase, Renin = target: T5, Peptidase, Renin (Homo sapiens, UniProt P00797); test: Eurofins panel 164610; format: biochemical
T5 construct: Eurofins 164610
T5 sequence (P00797 67-406): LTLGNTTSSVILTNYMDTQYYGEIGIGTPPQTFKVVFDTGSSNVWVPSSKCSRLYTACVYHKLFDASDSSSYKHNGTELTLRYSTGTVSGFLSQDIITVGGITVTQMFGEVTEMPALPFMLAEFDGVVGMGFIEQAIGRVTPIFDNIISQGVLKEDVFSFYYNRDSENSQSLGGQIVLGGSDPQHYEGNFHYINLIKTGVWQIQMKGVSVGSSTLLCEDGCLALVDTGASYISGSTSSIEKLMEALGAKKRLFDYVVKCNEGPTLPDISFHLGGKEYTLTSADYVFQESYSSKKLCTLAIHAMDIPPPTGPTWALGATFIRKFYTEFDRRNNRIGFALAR

Sigma σ1 = target: T6, Sigma σ1 (Homo sapiens, UniProt Q99720); test: Receptor binding 278110
T6 construct: Eurofins (contract assay) 278110
T6 sequence (Q99720 whole entry): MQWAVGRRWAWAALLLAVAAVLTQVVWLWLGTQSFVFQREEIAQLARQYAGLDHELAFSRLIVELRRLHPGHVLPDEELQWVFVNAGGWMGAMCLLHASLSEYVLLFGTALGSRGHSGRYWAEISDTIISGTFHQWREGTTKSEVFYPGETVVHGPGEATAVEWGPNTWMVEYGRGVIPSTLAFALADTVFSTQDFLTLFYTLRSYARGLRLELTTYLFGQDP
Description: as §1

Monoamine Oxidase MAO-B = target: T7, Monoamine Oxidase MAO-B (Homo sapiens, UniProt P27338); test: Eurofins panel 140120; format: biochemical
T7 construct: Eurofins 140120
T7 sequence (P27338 whole entry): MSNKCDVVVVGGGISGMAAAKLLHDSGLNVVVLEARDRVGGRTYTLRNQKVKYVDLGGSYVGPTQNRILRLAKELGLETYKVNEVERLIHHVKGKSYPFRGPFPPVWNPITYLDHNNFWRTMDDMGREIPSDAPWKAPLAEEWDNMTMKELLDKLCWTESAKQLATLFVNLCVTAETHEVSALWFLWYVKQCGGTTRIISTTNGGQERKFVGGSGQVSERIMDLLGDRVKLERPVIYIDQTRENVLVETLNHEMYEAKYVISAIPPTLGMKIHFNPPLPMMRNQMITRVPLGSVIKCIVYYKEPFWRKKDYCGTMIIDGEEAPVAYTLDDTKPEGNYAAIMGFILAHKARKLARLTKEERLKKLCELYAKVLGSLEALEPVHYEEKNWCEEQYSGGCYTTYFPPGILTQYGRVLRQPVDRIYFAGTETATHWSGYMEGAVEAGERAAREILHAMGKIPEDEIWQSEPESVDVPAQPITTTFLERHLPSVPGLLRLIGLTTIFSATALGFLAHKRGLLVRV
Description: as §1

Angiotensin AT2 = target: T8, Angiotensin AT2 (Homo sapiens, UniProt P50052); test: Receptor binding 210120
T8 construct: Eurofins 210120; host or cells: crude membrane preparation
T8 sequence (P50052 whole entry): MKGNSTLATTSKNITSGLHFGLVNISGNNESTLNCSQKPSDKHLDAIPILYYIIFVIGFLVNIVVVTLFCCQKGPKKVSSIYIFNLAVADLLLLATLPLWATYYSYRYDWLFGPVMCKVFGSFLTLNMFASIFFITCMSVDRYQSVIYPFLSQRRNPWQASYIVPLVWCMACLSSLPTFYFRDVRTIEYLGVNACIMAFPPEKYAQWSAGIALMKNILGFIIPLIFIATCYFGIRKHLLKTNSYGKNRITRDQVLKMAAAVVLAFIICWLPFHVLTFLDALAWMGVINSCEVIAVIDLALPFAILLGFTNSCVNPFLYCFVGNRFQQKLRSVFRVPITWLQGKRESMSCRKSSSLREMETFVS
Description: as §1

Dopamine D3 = target: T9, Dopamine D3 (Homo sapiens, UniProt P35462); test: Receptor binding 219800
T9 construct: Eurofins 219800; host or cells: crude membrane preparation
T9 sequence (P35462 whole entry): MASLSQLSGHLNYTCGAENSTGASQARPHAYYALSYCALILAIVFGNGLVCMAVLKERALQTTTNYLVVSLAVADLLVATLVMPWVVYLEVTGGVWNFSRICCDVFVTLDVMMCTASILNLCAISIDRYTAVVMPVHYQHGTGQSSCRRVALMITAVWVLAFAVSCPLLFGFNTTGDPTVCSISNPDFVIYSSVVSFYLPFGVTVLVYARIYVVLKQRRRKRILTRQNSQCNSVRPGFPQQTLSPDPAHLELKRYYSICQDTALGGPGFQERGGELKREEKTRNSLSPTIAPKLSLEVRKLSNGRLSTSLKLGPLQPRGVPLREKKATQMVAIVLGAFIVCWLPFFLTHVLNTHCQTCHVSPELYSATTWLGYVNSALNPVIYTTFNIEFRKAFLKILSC
Description: as §1

Glucocorticoid = target: T10, Glucocorticoid (Homo sapiens, UniProt P04150); test: Receptor binding 232030
T10 construct: Eurofins (contract assay) 232030
T10 sequence (P04150 whole entry): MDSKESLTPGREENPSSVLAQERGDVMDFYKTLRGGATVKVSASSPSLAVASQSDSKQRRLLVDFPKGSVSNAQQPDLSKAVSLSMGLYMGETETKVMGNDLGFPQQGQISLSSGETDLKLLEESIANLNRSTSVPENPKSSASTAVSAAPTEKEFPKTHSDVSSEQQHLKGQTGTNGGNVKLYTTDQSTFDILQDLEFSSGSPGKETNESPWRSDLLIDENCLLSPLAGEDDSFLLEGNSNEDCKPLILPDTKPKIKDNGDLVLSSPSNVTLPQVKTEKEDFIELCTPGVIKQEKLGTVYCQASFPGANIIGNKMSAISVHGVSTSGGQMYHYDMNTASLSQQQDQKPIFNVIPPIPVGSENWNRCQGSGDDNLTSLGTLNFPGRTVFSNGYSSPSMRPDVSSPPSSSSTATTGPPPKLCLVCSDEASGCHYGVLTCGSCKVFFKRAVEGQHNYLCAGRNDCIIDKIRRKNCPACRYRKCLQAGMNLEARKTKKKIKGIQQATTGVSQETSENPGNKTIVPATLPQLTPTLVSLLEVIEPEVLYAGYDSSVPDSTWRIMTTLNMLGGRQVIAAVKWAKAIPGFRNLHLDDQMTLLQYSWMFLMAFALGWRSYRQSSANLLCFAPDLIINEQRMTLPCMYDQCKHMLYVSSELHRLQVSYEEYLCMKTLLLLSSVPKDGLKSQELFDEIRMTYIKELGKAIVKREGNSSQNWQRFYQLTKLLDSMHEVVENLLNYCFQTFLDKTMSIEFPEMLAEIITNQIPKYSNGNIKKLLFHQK
Description: as §1

Muscarinic M2 = target: T11, Muscarinic M2 (Homo sapiens, UniProt P08172); test: Receptor binding 252710
T11 construct: Eurofins (contract assay) 252710
T11 sequence (P08172 whole entry): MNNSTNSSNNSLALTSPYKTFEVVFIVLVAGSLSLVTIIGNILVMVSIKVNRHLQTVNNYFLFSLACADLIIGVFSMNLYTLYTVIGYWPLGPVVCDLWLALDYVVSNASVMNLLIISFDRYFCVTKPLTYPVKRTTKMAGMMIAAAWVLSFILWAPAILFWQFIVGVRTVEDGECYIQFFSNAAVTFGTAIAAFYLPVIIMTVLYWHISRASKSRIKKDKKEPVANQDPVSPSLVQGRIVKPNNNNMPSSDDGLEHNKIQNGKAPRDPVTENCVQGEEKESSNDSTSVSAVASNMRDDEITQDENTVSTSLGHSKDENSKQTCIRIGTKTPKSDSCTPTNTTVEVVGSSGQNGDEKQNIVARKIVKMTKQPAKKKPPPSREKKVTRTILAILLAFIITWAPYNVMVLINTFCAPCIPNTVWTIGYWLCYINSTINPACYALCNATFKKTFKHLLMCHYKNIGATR
Description: as §1

GABAA, Muscimol, Central = test: Receptor binding 226500; parameters: species or system rat; details: 10 μM
Description: as §1

Adrenergic α2A = target: T12, Adrenergic α2A (Homo sapiens, UniProt P08913); test: Receptor binding 203630
T12 construct: Eurofins 203630; host or cells: crude membrane preparation
T12 sequence (P08913 whole entry): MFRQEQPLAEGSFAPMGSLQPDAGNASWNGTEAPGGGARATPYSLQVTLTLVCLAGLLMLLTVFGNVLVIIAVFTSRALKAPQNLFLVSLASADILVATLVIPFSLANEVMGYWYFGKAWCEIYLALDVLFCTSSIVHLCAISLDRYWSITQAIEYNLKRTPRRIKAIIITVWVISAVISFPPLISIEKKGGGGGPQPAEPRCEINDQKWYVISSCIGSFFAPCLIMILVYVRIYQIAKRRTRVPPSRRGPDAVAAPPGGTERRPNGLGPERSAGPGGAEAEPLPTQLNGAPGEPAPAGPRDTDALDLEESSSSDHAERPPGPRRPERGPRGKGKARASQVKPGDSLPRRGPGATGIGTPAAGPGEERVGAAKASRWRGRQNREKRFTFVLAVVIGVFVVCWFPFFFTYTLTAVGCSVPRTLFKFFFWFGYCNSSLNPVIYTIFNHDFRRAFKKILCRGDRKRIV
Description: as §1

Androgen (Testosterone) = test: Receptor binding 206000; parameters: species or system human; details: 10 μM
Description: as §1

[2] = tested on: guinea pig isolated cardiomyocytes; test: Action potential measurements in isolated ventricular cardiomyocytes; format: cell-based; details: 100 nM
From the text: The compounds were characterized for their effect on (i) SR Ca^2+ uptake function, (ii) action potential (AP) in myocytes freshly dissociated from guinea-pig ventricles by retrograde coronary perfusion with enzymatic solution (Rocchetti M et al. J Pharmacol Exper Therap 2005; 313(1):207-215).
The action potential (AP) contour provides a first-line estimate of the integrated function of membrane ion channels and its changes may disclose ancillary actions, potentially resulting in untoward effects of the compound. To increase sensitivity of the AP contour as a reporter, effects on the rate-dependency of AP parameters were also tested, thus providing a multiparametric (more stringent) approach.
APs were recorded in normal Tyrode's solution at 36.5° C. The following parameters were measured at 4 stimulation rates (0.5-1-2-4 Hz): diastolic membrane potential (Edlast), maximum depolarization velocity (dV/dtmax), action potential duration (APD at 90%, 50% and 20% of repolarization), time constant (τ) of APD adaptation after a step change in stimulation rate. Short term APD variability (STV) during steady-state pacing, an index of repolarization stability, was measured as the sum of absolute ortogonal deviations from the identity line in the APDnfAPDn+1 plot (Poincare plot) (Altomare C et al, Circulation A&E 2015; 8:1265-1275).

T1 sequence (Q5BJF2 whole entry): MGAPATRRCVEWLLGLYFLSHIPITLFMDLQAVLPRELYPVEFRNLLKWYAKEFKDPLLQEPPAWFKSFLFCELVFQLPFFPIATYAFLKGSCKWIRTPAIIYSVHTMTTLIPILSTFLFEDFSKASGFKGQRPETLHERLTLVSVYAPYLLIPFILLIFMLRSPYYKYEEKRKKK

With `C[C@]12CC[C@H](O)C[C@H]1CCC1C2CC[C@]2(C)[C@@H](c3c[nH]cn3)CC[C@]12O` (stereo partly drawn) [CVie 101, 3β-hydroxy-5β-10β-methyl-13β-methyl-14β-hydroxy-17β-(imidazol-4-yl)androstane] the inhibition at 10 µM (Sigma σ2) was 30%, the “% inhib” value (Imidazoline I2, Central) was 25% and the inhibition at 10 µM (Adrenergic β1) was -4%. For the same compound, the “% inhib” value [1] was 7%, the inhibition at 10 µM (Dopamine D1) was -5% and the inhibition at 10 µM (Estrogen ERβ) was 17%. It also gave an inhibition at 10 µM (Peptidase, Renin) of 3%, an inhibition at 10 µM (Sigma σ1) of 23% and an inhibition at 10 µM (Monoamine Oxidase MAO-B) of 4%. It also gave an inhibition at 10 µM (Angiotensin AT2) of -1%, an inhibition at 10 µM (Dopamine D3) of 7% and an inhibition at 10 µM (Glucocorticoid) of 10%. For the same compound, the inhibition at 10 µM (Muscarinic M2) was 7%, the “% inhib” value (GABAA, Muscimol, Central) was −9% and the inhibition at 10 µM (Adrenergic α2A) was -7%. The “% inhib” value (Androgen (Testosterone)) was 1%, the “short term APD variability (STV)” value ([2]; 0.5-1-2-4 Hz separately or pooled, FIG. 3) was “unaffected” and the “diastolic membrane potential (Ediast)” value ([2]; 0.5-1-2-4 Hz, FIG. 2A) was “did not affect”. For the same compound, the “maximum depolarization velocity (dV/dtmax)” value ([2]; FIG. 2B) was “did not affect”, the “action potential duration (APD at 90%, 50% and 20% of repolarization) and its cycle-length dependency” value ([2]; FIG. 2C) was “did not affect” and the “time constant of APD adaptation after a step change in cycle length” value ([2]; FIG. 2D) was “not shortened”.
